From BindingDB's records for doi:10.7270/Q2SB445M (Nmmlsc, 2009)

Biological target: Ras-related protein Rab-7a (Canis lupus familiaris, UniProt P18067)
Experiment: extra analogs blocking nucleotide binding to Rab7 – biochemical, additional analogs, wildtype, multiplex bead flow cytometry, SAR follow-up (AID 2036)

Sequence of Ras-related protein Rab-7a (P18067 whole entry): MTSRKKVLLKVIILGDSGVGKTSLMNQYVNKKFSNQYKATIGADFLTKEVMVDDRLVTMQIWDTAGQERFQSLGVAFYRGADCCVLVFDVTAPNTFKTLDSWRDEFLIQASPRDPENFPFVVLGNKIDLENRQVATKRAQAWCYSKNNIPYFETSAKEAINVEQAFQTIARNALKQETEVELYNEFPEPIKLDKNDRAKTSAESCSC

O=C1Nc2c(F)cccc2C1=C1Nc2ccccc2C1=O
Ki: 1560 nM

O=C1NC(=S)N/C1=C1\C(=O)Nc2ccccc21 [(3Z)-3-(5-oxo-2-sulfanylideneimidazolidin-4-ylidene)-1H-indol-2-one]
Ki: 870 nM
